# ChEMBL document CHEMBL4513161, “CO-ADD screening of MMV (CH) - Pandemic Response Box” (2021)
# Columns and labels:
# [1] = system: Pseudomonas aeruginosa; experiment: microbe, parasite or virus in culture; settings: ATCC 27853, 18 h, ASSAY_TEST Inhibition of Bacterial Growth, detection method Absorption (OD600), MEDIA CAMHB, plate type 384well, NBS, CORNING #3640
# Description: Antibacterial activity against Pseudomonas aeruginosa ATCC 27853 (CO-ADD:GN_042); MIC in CAMBH media using NBS plates, by OD(600)
# [2] = system: Escherichia coli; experiment: microbe, parasite or virus in culture; settings: ATCC 25922, 18 h, ASSAY_TEST Inhibition of Bacterial Growth, detection method Absorption (OD600), MEDIA CAMHB, plate type 384well, NBS, CORNING #3640
# Description: Antibacterial activity against Escherichia coli ATCC 25922 (CO-ADD:GN_001); MIC in CAMBH media using NBS plates, by OD(600)
# [3] = system: HEK293; experiment: cells; assay type: functional, Homo sapiens, ATCC CRL1573; settings: Homo sapiens, ATCC CRL1573, HEK293; ASSAY_TEST Inhibition of Cell Viability; detection method Resazurin; Fluorescence (ex560/em590); MEDIA DMEM with 10% FBS; plate type 384well; TC; CORNING #3712; time 18 hr; read-out: CC50
# [4] = system: Candida albicans; experiment: microbe, parasite or virus in culture; settings: ATCC 90028, ASSAY_TEST Inhibition of Fungal Growth, detection method Absorption (OD530), plate type 384well, NBS, CORNING #3640
# Description: Antifungal activity against Candida albicans ATCC 90028 (CO-ADD:FG_001); MIC in YNB media using NBS plates, by OD630
# [5] = system: Cryptococcus neoformans
# Description: Antifungal activity against Cryptococcus neoformans H99 ATCC 208821 (CO-ADD:FG_002); MIC in YNB media using NBS plates, by Resazurin OD(600-570)
# [6] = system: Acinetobacter baumannii; experiment: microbe, parasite or virus in culture; settings: ATCC 19606, 18 h, ASSAY_TEST Inhibition of Bacterial Growth, detection method Absorption (OD600), MEDIA CAMHB, plate type 384well, NBS, CORNING #3640
# Description: Antibacterial activity against Acinetobacter baumannii ATCC 19606 (CO-ADD:GN_034); MIC in CAMBH media using NBS plates, by OD600
# [7] = system: Pseudomonas aeruginosa; experiment: Antibacterial activity against Pseudomonas aeruginosa PAO397 [PAO1 d(mexAB-oprM) d(mexCD-oprJ) d(mexEF-oprN) d(mexJKL) d(mexXY) d(opmH)] (CO-ADD:GN_211); MIC in CAMBH media using NBS plates, by OD(600); assay type: functional; settings: ASSAY_TEST Inhibition of Bacterial Growth, detection method Absorption (OD600), MEDIA CAMHB, plate type 384well, CORNING #3640, time 18 hr
# [8] = system: Klebsiella pneumoniae; experiment: microbe, parasite or virus in culture; settings: ATCC 700603, 18 h, ASSAY_TEST Inhibition of Bacterial Growth, detection method Absorption (OD600), MEDIA CAMHB, plate type 384well, NBS, CORNING #3640
# Description: Antibacterial activity against Klebsiella pneumoniae MDR ATCC 70063 (CO-ADD:GN_003); MIC in CAMBH media using NBS plates, by OD(600)
# [9] = system: Staphylococcus aureus; experiment: microbe, parasite or virus in culture; settings: ATCC 43300, 18 h, ASSAY_TEST Inhibition of Bacterial Growth, detection method Absorption (OD600), MEDIA CAMHB, plate type 384well, NBS, CORNING #3640
# Description: Antibacterial activity against Staphylococcus aureus MRSA ATCC 43300 (CO-ADD:GP_020); MIC in CAMBH media, using NBS plates, by OD(600)
Structure (SMILES),MIC [1],MIC [2],MIC [4],MIC [5],MIC [6],MIC [7],MIC [8],MIC [9],CC50 [3]
C[C@@H](NC(=O)c1cccc(-c2cnc(-c3cc4ccccc4cn3)[nH]2)c1)c1ccc(F)cc1,> 20 µM,> 20 µM,> 20 µM,> 20 µM,> 20 µM,> 20 µM,> 20 µM,> 20 µM,10.8 µM
NC(=O)c1cnccn1 [PYRAZINAMIDE],> 20 µM,> 20 µM,> 20 µM,> 20 µM,> 20 µM,> 20 µM,> 20 µM,> 20 µM,> 20 µM
CC(C)(C)NC(=O)N[C@H](C(=O)N1C[C@H]2[C@@H]([C@H]1C(=O)NC(CC1CCC1)C(=O)C(N)=O)C2(C)C)C(C)(C)C (some centres not stated) [BOCEPREVIR],> 20 µM,> 20 µM,> 20 µM,> 20 µM,> 20 µM,> 20 µM,> 20 µM,> 20 µM,> 20 µM
NCCCc1ccccc1C(=O)Nc1ncc([N+](=O)O)s1,> 20 µM,> 20 µM,> 20 µM,> 20 µM,> 20 µM,> 20 µM,> 20 µM,> 20 µM,> 20 µM
Nc1nnc(-c2ccc(Cl)cc2)s1,> 20 µM,> 20 µM,> 20 µM,> 20 µM,> 20 µM,> 20 µM,> 20 µM,> 20 µM,> 20 µM
COC1CC2CCC(C)C(O)(O2)C(=O)C(=O)N2CCCCC2C(=O)OC(C(C)CC2CCC(OCCO)C(OC)C2)CC(=O)C(C)/C=C(\C)C(O)C(OC)C(=O)C(C)CC(C)/C=C/C=C/C=C/1C (configuration not stated),> 20 µM,> 20 µM,≤ 0.156 µM,≤ 0.156 µM,> 20 µM,> 20 µM,> 20 µM,> 20 µM,> 20 µM
NNC(=O)c1ccncc1 [ISONIAZID],> 20 µM,> 20 µM,> 20 µM,> 20 µM,> 20 µM,> 20 µM,> 20 µM,> 20 µM,> 20 µM
O=c1cc(NCCCN[C@@H]2CCOc3c(Br)cc(Br)cc32)[nH]c2ccsc12 [CRS-3123],> 20 µM,> 20 µM,> 20 µM,> 20 µM,> 20 µM,20 µM,> 20 µM,0.312 µM,> 20 µM
CC1(C)CC(NC(=O)C(=O)Nc2ccc(Cl)cc2)CC(C)(C)N1,> 20 µM,> 20 µM,> 20 µM,> 20 µM,> 20 µM,> 20 µM,> 20 µM,> 20 µM,> 20 µM
CNCC(=O)OCc1cccnc1N(C)C(=O)OC(C)[n+]1cnn(C[C@](O)(c2cc(F)ccc2F)[C@@H](C)c2nc(-c3ccc(C#N)cc3)cs2)c1 (some centres not stated) [ISAVUCONAZONIUM],> 20 µM,> 20 µM,≤ 0.156 µM,2.5 µM,> 20 µM,> 20 µM,> 20 µM,> 20 µM,> 20 µM
CCNC(=O)Nc1cn2c(-c3ncc(CC)cn3)cc(-c3cccnc3)cc2n1,> 20 µM,> 20 µM,> 20 µM,> 20 µM,> 20 µM,> 20 µM,> 20 µM,> 20 µM,> 20 µM
Cc1cc(O)c2c(c1)C(=O)c1c(I)c(O)c(I)c(O)c1C2=O,> 20 µM,> 20 µM,> 20 µM,> 20 µM,> 20 µM,> 20 µM,> 20 µM,20 µM,> 20 µM
CC(C)(C)NC(=O)[C@@H]1CN(Cc2cnc3occc3c2)CCN1C[C@@H](O)C[C@@H](Cc1ccccc1)C(=O)N[C@H]1c2ccccc2C[C@H]1O,> 20 µM,> 20 µM,> 20 µM,> 20 µM,> 20 µM,> 20 µM,> 20 µM,> 20 µM,> 20 µM
CCC(C)(C)c1ccc(CC(C)CN2C[C@@H](C)O[C@@H](C)C2)cc1 (some centres not stated),> 20 µM,> 20 µM,2.5 µM,> 20 µM,> 20 µM,> 20 µM,> 20 µM,> 20 µM,> 20 µM
OB1OCc2c1ccc(Cl)c2F,> 20 µM,> 20 µM,10 µM,20 µM,> 20 µM,> 20 µM,> 20 µM,> 20 µM,> 20 µM
COc1ccc(-n2cnc3cc(NCc4ccco4)ccc32)cc1,> 20 µM,> 20 µM,> 20 µM,> 20 µM,> 20 µM,> 20 µM,> 20 µM,> 20 µM,> 20 µM
CN1CCN(c2ccc3[nH]c(-c4ccc5[nH]c(-c6ccc(O)cc6)nc5c4)nc3c2)CC1 [HOECHST 33258],> 20 µM,> 20 µM,5 µM,2.5 µM,> 20 µM,20 µM,> 20 µM,> 20 µM,> 20 µM
OCCC#Cc1nc(-c2ccc(F)cc2)c(-c2ccncc2)n1CCCc1ccccc1 [RWJ-67657],> 20 µM,> 20 µM,> 20 µM,> 20 µM,> 20 µM,> 20 µM,> 20 µM,> 20 µM,> 20 µM
CO/N=C(\C(=O)N[C@@H]1C(=O)N2C(C(=O)OCOC(=O)C(C)(C)C)=C(/C=C\c3scnc3C)CS[C@H]12)c1csc(N)n1 [CEFDITOREN PIVOXIL],> 20 µM,> 20 µM,> 20 µM,> 20 µM,> 20 µM,> 20 µM,> 20 µM,> 20 µM,> 20 µM

# Second part, led by results:
MIC [1],MIC [2],MIC [4],MIC [5],MIC [6],MIC [7],MIC [8],MIC [9],Structure (SMILES),CC50 [3]
> 20 µM,> 20 µM,> 20 µM,> 20 µM,> 20 µM,> 20 µM,> 20 µM,> 20 µM,O=c1[nH]c(=O)n(Cc2cccc(Oc3ccccc3)c2)cc1Nc1ccccc1,> 20 µM
> 20 µM,> 20 µM,> 20 µM,> 20 µM,> 20 µM,> 20 µM,> 20 µM,> 20 µM,CCc1oc2ccccc2c1C(=O)c1ccc(O)cc1 [BENZARONE],> 20 µM
> 20 µM,> 20 µM,> 20 µM,> 20 µM,> 20 µM,> 20 µM,> 20 µM,> 20 µM,CC(Cc1ccccc1)C(=O)Nc1ccc(Cl)cc1C(=O)O (configuration not stated),> 20 µM
> 20 µM,> 20 µM,> 20 µM,> 20 µM,> 20 µM,> 20 µM,> 20 µM,> 20 µM,CONC(=N)c1ccc(-c2ccc(-c3ccc(C(=N)NOC)cc3)o2)cc1 [PAFURAMIDINE],> 20 µM
> 20 µM,> 20 µM,> 20 µM,> 20 µM,> 20 µM,> 20 µM,> 20 µM,> 20 µM,O=C(O)c1cc(-c2ccc(Br)cc2)nc2ccc(Cl)cc12,> 20 µM
> 20 µM,> 20 µM,> 20 µM,> 20 µM,> 20 µM,> 20 µM,> 20 µM,> 20 µM,Cc1cccc(C)c1C(=O)Nc1nc(-c2ccccn2)cc2ccccc12,7.29 µM
> 20 µM,> 20 µM,> 20 µM,> 20 µM,> 20 µM,> 20 µM,> 20 µM,> 20 µM,COc1ccc2nc(-c3ccccc3)cc(O)c2c1,2.85 µM
> 20 µM,> 20 µM,> 20 µM,> 20 µM,> 20 µM,> 20 µM,> 20 µM,> 20 µM,O=S(=O)(Nc1ccc(O)cc1)c1cccc2cccnc12,> 20 µM
> 20 µM,> 20 µM,> 20 µM,> 20 µM,> 20 µM,> 20 µM,> 20 µM,> 20 µM,O=C(Nc1ccccc1)N(Cc1cc(Br)ccc1O)c1ccc(F)cc1,> 20 µM
